How the values were obtained:
[1] = pH at which net charge is zero; cited from earlier work
[2] = Extent of un-ionized form at a given pH, worked out from pKa; assay type: physicochemical
Text: Conversion of the ionized form to the un-ionized form for basic agents is related to pH by the formula: pH=pKa +Log10 (Un-ionized concentration/Ionized concentration). When the pH is the same as the pKa, equimolar concentrations of the unionized form and ionized form exist. […] Similarly, when the pH is two units higher than the pKa, the ratio of un-ionized form to the ionized form is 100:1. As noted above, the un-ionized form is lipophilic and, therefore, more capable of passing through the mucous membranes than the ionized form, which is lipophobic in nature. Accordingly, increasing the pH of the saliva favors conversion of the ionized form into the un-ionized form for basic agents, and the final pH may be determined by making use of the above formula for any basic agent.

[3] = in vitro; conditions: PAMPA
Protocol: (§1) This assay uses a lipid-coated membrane to predict lipid mucosal membrane penetration.
(§2) The membrane apparatus consists of a dodecane membrane sandwiched between a donor and acceptor cell.
(§3) Membrane assays were performed using oxycodone HCl solutions at a pH of 6.5, 9.5, and 10.0. The pH of the solutions was adjusted using a freshly prepared 0.01 M sodium bicarbonate—sodium carbonate buffer. Permeation was measured by determining the concentrations of oxycodone in the acceptor cell and is expressed as Pe (effective permeability in centimeters per second).

[4] = Membrane assay (parallel artificial membrane, effective permeability); conditions: for Papp: PAMPA
Protocol: as §1, §2, §3

Question: Which isoelectric point [1] does the source give for `CN1CCC23c4c5ccc(O)c4OC2C(O)C=CC3C1C5` (stereo not shown) [morphine] here?
Answer: 9.1

Question: For `CNS(=O)(=O)Cc1ccc2[nH]cc(CCN(C)C)c2c1` [Sumatriptan, sumatriptan], which un-ionized ([2]; at pH 10.5) is on record?
Answer: 99%

Question: What about the un-ionized ([2]; at pH 11.5) of the same molecule?
Answer: 100%

Question: And the Papp ([3]; pH 9)?
Answer: 599 ×10⁻⁶ cm/s

Question: What about the Papp ([3]; pH 9.5) of the same molecule?
Answer: 945 ×10⁻⁶ cm/s

Question: What about the Papp ([3]; pH 10) of the same molecule?
Answer: 1560 ×10⁻⁶ cm/s

Question: Which “increase of effective permeability” value ([4]; pH 8.5 relative to pH 5.4) does the source give for `Cc1nccn1CC1CCc2c(c3ccccc3n2C)C1=O` (stereo not shown) [Ondansetron] here?
Answer: > 1000%

Question: And the “increase of effective permeability” value ([4]; pH 8.5 relative to pH 7.4)?
Answer: more than 200%

Question: What does the source list for `COc1ccc2c3c1O[C@H]1C(=O)CC[C@@]4(O)[C@@H](C2)N(C)CC[C@]314` [Oxycodone, oxycodone]?
Answer: un-ionized ([2]; at pH 9.9): 99%; un-ionized ([2]; at pH 10.9): 100%; Papp ([4]; pH 6.5): 227 ×10⁻⁶ cm/s; Papp ([4]; pH 9.5): 490 ×10⁻⁶ cm/s; Papp ([4]; pH 10): 554 ×10⁻⁶ cm/s

Reference: patent US20050042281A1, “Compositions for delivering therapeutic agents across the oral mucosa” (priority 2003, published 2005)
